Assay results: patent publication US7361743B2 (Pfizer Inc, priority 2004, dated 2008)
≈ marks a conversion by molar mass, not a printed value. Where two headings read alike, the source gives them in different places.

Legend:
[1] = tested on: Enterococcus faecalis; experiment: Susceptibility testing, NCCLS microdilution MIC; format: cell-based; settings: for MIC: Enterococcus faecalis
[2] = tested on: Staphylococcus aureus; experiment: Susceptibility testing, NCCLS microdilution MIC; format: cell-based
[3] = tested on: Bacteroides fragilis; experiment: Susceptibility testing, NCCLS microdilution MIC (anaerobe); format: cell-based; settings: for MIC: Bacteroides fragilis
[4] = tested on: Haemophilus influenzae; experiment: Susceptibility testing, NCCLS microdilution MIC; format: cell-based; settings: for MIC: Haemophilus influenzae
[5] = tested on: E. coli transcription/translation (bacterial protein synthesis, E. coli S30 extract); experiment: In vitro inhibition of E. coli transcription and translation assay (TT), cell-free; format: biochemical; settings: for IC50: cell-free E. coli S30 extract; for In vitro inhibition of E. coli transcription and translation compared with literature azepine compound VIII(18): cell-free TT assay, comparison in words
Procedure: Inhibition of bacterial protein synthesis was assayed in a cell-free E. coli transcription/translation assay.
Stock solutions of compounds were prepared at 10 mg/mL in DMSO. The assay contained less or equal to 1% (v/v) final concentration of DMSO. Three-fold serial dilutions were prepared in assay buffer at 6-fold final concentration in 96 well microtiter plate.
All vials, tubes and microtiter plates are RNase free. The Mix was freshly prepared with 10 μl H2O, 10 μl AA-M, 10 μl AA-L, 80 μl Premix and 50 μl ES30 extract. The assay was performed in a 96-well plate. Five microliters of compounds at various concentrations (6-fold final assay concentration) were preincubated with 20 μl of the mix for 5 min at room temperature. The reaction started with addition of 5 μl of plasmid (˜0.1 mg/mL pGEMBGAL), and kept at 37° C. for 1 h followed by the addition of 150 μl of OPNG solution (4 mg/mL OPNG in 0.1M NaPi, pH 7.5, 1 mM MgCl2 and 2 mM DTT). 150 μl of the reaction was transferred to a ½-area plate and increase in absorption at OD420 nm was monitored for 10 min using a Spectramax plate reader (Molecular Devices). The slope of absorption change over time is corresponding to the pathway activity.
The E. coli S30 Extract for circular DNA kit was purchased from Promega. Original plasmid pGEMBGAL was obtained from Promega and amplified via Maxiprep in house. 2-Nitrophenyl β-D-galactopyranoside was obtained from Sigma. Clindamycin HCl (USP) was purchased from Spectrum.
The inhibition are expressed as percent of control activity (without inhibitor) which is calculated according to equation (1): Inhibition %=(compound slope-blank slope)/(control slope-blank slope)*100 (1)
All IC50s were determined by fitting the experimental data to equation (2) using software DeltaGraph (DeltaPoint Inc.): Y=Y0/(1+(X/IC50)[…])+c (2)
Where Y: activity at given inhibitor concentration; Y0: activity without inhibitor; X: inhibitor concentration; d: slope; c: constant.
Lincosamides inhibit bacterial growth through binding to the bacterial 50S ribosome, thus inhibiting peptide bond formation. The transcription/translation assay provides a screening tool to measure inhibition of bacterial protein synthesis pathway at the target level without the complication of differences in membrane permeability.

[6] = ATCC29212, E. faecalis ATCC 29212, Example A′, read-out: MIC E. faecalis
[7] = ATCC25923, S. aureus ATCC 25923, Example A′, read-out: MIC S. aureus
[8] = ATCC25285, B. fragilis ATCC 25285, Example A′, read-out: MIC B. fragilis
[9] = ATCC31517, H. influenzae ATCC 31517, Example A′, read-out: MIC H. influenzae

Row | SMILES | MIC [1, 6] [µg/mL] | MIC [2, 7] [µg/mL] | MIC [3, 8] [µg/mL] | MIC [4, 9] [µg/mL] | IC50 [5] [nM] | In vitro inhibition of E. coli transcription and translation compared with literature azepine compound VIII(18) [5] | other results
1 | CCOCCC[C@@H]1CCN[C@H](C(=O)N[C@@H]([C@H]2O[C@H](SC)[C@H](O)[C@@H](O)[C@H]2O)[C@H](C)Cl)CC1 [Example 19′, 5-(3-Ethoxy-propyl)-azepane-2-carboxylic acid [2-chloro-1-(3,4,5-trihydroxy-6-methylsulfanyl-tetrahydro-pyran-2-yl)-propyl]-amide] | 2 (≈ 4.14 µM) | 0.125 (≈ 0.259 µM) | 8 (≈ 16.6 µM) | 4 (≈ 8.28 µM) |  |  | 
2 | CS[C@H]1O[C@H]([C@H](NC(=O)[C@@H]2CCCCCN2)[C@H](C)Cl)[C@H](O)[C@H](O)[C@H]1O [VIII(18), Azepane-2-carboxylic acid [2-chloro-1-(3,4,5-trihydroxy-6-methylsulfanyl-tetrahydro-pyran-2-yl)-propyl]-amide, reference compound] | 8 (≈ 20.2 µM) | 4 (≈ 10.1 µM) | 2 (≈ 5.04 µM) | > 8 | 21000 |  | MIC ([1]; Example A′, strain not stated, 24 h at 35° C., read-out: MIC against Enterococcus faecalis): 8 µg/mL (≈ 20.2 µM); MIC ([2]; Example A′, strain not stated, 24 h at 35° C., read-out: MIC against Staphylococcus aureus): 4 µg/mL (≈ 10.1 µM); MIC ([4]; Example A′, strain not stated, 24 h at 35° C., read-out: MIC against Haemophilus influenzae): > 8 µg/mL
3 | CS[C@H]1O[C@H]([C@H](NC(=O)C2CC[C@H](CCCCC#N)CCN2)[C@H](C)Cl)[C@H](O)[C@H](O)[C@H]1O (stereo in doubt) [Example 8′, 5-(4-Cyano-butyl)-azepane-2-carboxylic acid [2-chloro-1-(3,4,5-trihydroxy-6-methylsulfanyl-tetrahydro-pyran-2-yl)-propyl]-amide] | 0.06 (≈ 0.126 µM) | 0.125 (≈ 0.261 µM) | 1 (≈ 2.09 µM) | 0.5 (≈ 1.05 µM) | 190 | markedly superior | 
4 | CS[C@H]1O[C@H]([C@H](NC(=O)[C@@H]2CC[C@H](CCCOc3cccnc3)CCN2)[C@H](C)Cl)[C@H](O)[C@H](O)[C@H]1O [Example 15′, 5-[3-(Pyridin-3-yloxy)-propyl]-azepane-2-carboxylic acid [2-chloro-1-(3,4,5-trihydroxy-6-methylsulfanyl-tetrahydro-pyran-2-yl)-propyl]-amide] | 0.5 (≈ 0.94 µM) | 0.125 (≈ 0.235 µM) | > 8 | 2 (≈ 3.76 µM) | 1100 | markedly superior | 
5 | CS[C@H]1O[C@H]([C@H](NC(=O)C2CC[C@H](CCCO)CCN2)[C@H](C)Cl)[C@H](O)[C@H](O)[C@H]1O (stereo in doubt) [Example 2′, 5-(3-Hydroxy-propyl)-azepane-2-carboxylic acid [2-chloro-1-(3,4,5-trihydroxy-6-methylsulfanyl-tetrahydro-pyran-2-yl)-propyl]-amide] | 1 (≈ 2.2 µM) | 0.5 (≈ 1.1 µM) | 4 (≈ 8.79 µM) | 0.5 (≈ 1.1 µM) | 400 | markedly superior | 
6 | CS[C@H]1O[C@H]([C@H](NC(=O)[C@@H]2CC[C@H](CCCOCCF)CCN2)[C@H](C)Cl)[C@H](O)[C@H](O)[C@H]1O [Example 20′, 5-[3-(2-Fluoro-ethoxy)-propyl]-azepane-2-carboxylic acid [2-chloro-1-(3,4,5-trihydroxy-6-methylsulfanyl-tetrahydro-pyran-2-yl)-propyl]-amide] | 2 (≈ 3.99 µM) | 0.125 (≈ 0.249 µM) | 8 (≈ 16 µM) | 2 (≈ 3.99 µM) |  |  | 
7 | CS[C@H]1O[C@H]([C@H](NC(=O)C2CC[C@H](CCCCO)CCN2)[C@H](C)Cl)[C@H](O)[C@H](O)[C@H]1O (stereo in doubt) [Example 1′, 5-(4-Hydroxy-butyl)-azepane-2-carboxylic acid [2-chloro-1-(3,4,5-trihydroxy-6-methylsulfanyl-tetrahydro-pyran-2-yl)-propyl]-amide] | 1 (≈ 2.13 µM) | 0.25 (≈ 0.533 µM) | 8 (≈ 17.1 µM) | 0.5 (≈ 1.07 µM) | 530 | markedly superior | 
8 | COCCCC[C@@H]1CCN[C@H](C(=O)N[C@@H]([C@H]2O[C@H](SC)[C@H](O)[C@@H](O)[C@H]2O)[C@H](C)Cl)CC1 [Example 12′, 5-(4-Methoxy-butyl)-azepane-2-carboxylic acid [2-chloro-1-(3,4,5-trihydroxy-6-methylsulfanyl-tetrahydro-pyran-2-yl)-propyl]-amide] | 0.5 (≈ 1.04 µM) | 0.06 (≈ 0.124 µM) | 2 (≈ 4.14 µM) | 0.5 (≈ 1.04 µM) | 290 | markedly superior | 
9 | CCCc1cn(CCC[C@@H]2CCN[C@H](C(=O)N[C@@H]([C@H]3O[C@H](SC)[C@H](O)[C@@H](O)[C@H]3O)[C@H](C)Cl)CC2)nn1 [Example 17′, 5-[3-(4-Propyl-[1,2,3]triazol-1-yl)-propyl]-azepane-2-carboxylic acid [2-chloro-1-(3,4,5-trihydroxy-6-methylsulfanyl-tetrahydro-pyran-2-yl)-propyl]-amide] | 8 (≈ 14.6 µM) | 1 (≈ 1.82 µM) | > 8 | 4 (≈ 7.3 µM) | 750 | markedly superior | 
10 | CS[C@H]1O[C@H]([C@H](NC(=O)C2CC[C@H](CCCn3ccnn3)CCN2)[C@H](C)Cl)[C@H](O)[C@H](O)[C@H]1O (stereo in doubt) [Example 9′, 5-(3-[1,2,3]Triazol-1-yl-propyl)-azepane-2-carboxylic acid [2-chloro-1-(3,4,5-trihydroxy-6-methylsulfanyl-tetrahydro-pyran-2-yl)-propyl]-amide] | 4 (≈ 7.9 µM) | 0.5 (≈ 0.988 µM) | > 8 | 2 (≈ 3.95 µM) | 280 | markedly superior | 
11 | CCC[C@@H]1C[C@@H](C(=O)N[C@@H]([C@H]2O[C@H](SC)[C@H](O)[C@@H](O)[C@H]2O)[C@H](C)Cl)N(C)C1 [clindamycin, reference compound] |  | 0.125 (≈ 0.294 µM) |  |  |  |  | MIC E. faecalis ([1]; E. faecalis ATCC 29212, Example A′): >8 µg/mL; MIC ([1]; ATCC29212, E. faecalis ATCC 29212, NCCLS microdilution, read-out: MIC E. faecalis): > 8 µg/mL; MIC ([1]; Example A, strain ATCC29212, 16-20 h at 35° C., read-out: MIC against Enterococcus faecalis strain ATCC29212): > 8 µg/mL; MIC ([1]; Example A′, strain ATCC29212, 24 h at 35° C., read-out: MIC against Enterococcus faecalis strain ATCC29212): > 8 µg/mL; MIC B. fragilis ([3]; B. fragilis ATCC 25285, Example A′): 2 µg/mL (≈ 4.71 µM); MIC ([3]; ATCC25285, B. fragilis ATCC 25285, NCCLS microdilution, anaerobe, read-out: MIC B. fragilis): 2 µg/mL (≈ 4.71 µM); MIC ([3]; Example A, strain ATCC25285, anaerobe, 35° C. for 46-48 h, read-out: MIC against Bacteroides fragilis strain ATCC25285): 2 µg/mL (≈ 4.71 µM); MIC H. influenzae ([4]; H. influenzae ATCC 31517, Example A′): 8 µg/mL (≈ 18.8 µM); MIC ([4]; ATCC31517, Example A, strain ATCC 31517, 16-20 h at 35° C., read-out: MIC against H. influenzae strain ATCC 31517): 8 µg/mL (≈ 18.8 µM); MIC ([4]; ATCC31517, Example A′, strain ATCC 31517, 24 h at 35° C., read-out: MIC against H. influenzae strain ATCC 31517): 8 µg/mL (≈ 18.8 µM); MIC ([4]; ATCC31517, H. influenzae ATCC 31517, NCCLS microdilution, read-out: MIC H. influenzae): 8 µg/mL (≈ 18.8 µM)
